According to patent publication US12246012B2, “Method for treating nervous system injuries using boldine and derivatives thereof” (United States Government as Represented by the Department …, priority 2020, dated 2025):

Legend:
caspase-1 mRNA = assay: Hippocampus mRNA levels by qPCR after contusion SCI; type: in vivo, mouse; settings: contusion SCI mice, 13 dpi, N=3
Protocol: (§1) FIGS. 2A-D show plots of mRNA levels of Cx43 (2A), NLRP3 (2B), ASC (2C), and caspase-1 (2D) in the hippocampus of sham mice and those having contusion spinal cord injury (SCI) with and without boldine treatment. mRNA levels in the hippocampus were determined by qPCR at 13 dpi using tissues from mice that underwent laminectomy (Sham) or moderate (50 kdyne) contusion SCI. ((*p<0.05 by one-way ANOVA, N=3 per group).
(§2) In rats, a spinal cord injury (SCI) can result in cognitive deficits that are associated with activation in brain regions linked to pain processing and cognition of microglia and astrocytes as well as associated with upregulation of a gene involved in inflammation (Wu et al. 2013; Wu et al. 2014). Such changes may drive central pain in neuropathic pain syndromes. To determine whether boldine mitigates such changes, mRNA expression of Cx43 and genes involved in inflammasome assembly and activity were determined in mouse brains. While SCI increased caspase-1 in the hippocampus. […] These studies indicate that boldine can reduce neuropathic pain following spinal cord injury (SCI) associated with reductions in brain and spinal cord of expression of pro-inflammatory cytokines and chemokines linked to pathological pain.

[1] = system: CCL2 mRNA in LPS astrocytes; assay: mRNA expression after LPS-induced inflammatory response in astrocytic primary cell cultures; type: cell-based; settings: compared to vehicle-treated LPS astrocytes
Protocol: To model effects of boldine on release of chemokines and other mediators, changes in mRNA expression after lipopolysaccharide (LPS)-induced inflammatory responses were analyzed using astrocytic primary cell cultures.

IL-1β mRNA = assay: Thalamus mRNA levels by qPCR after contusion SCI; type: in vivo, mouse
Protocol: as §1
(§3) FIGS. 3A-B are plots showing that boldine normalizes spinal cord injury (SCI)-induced elevation of IL-1B mRNA levels in the thalamus. mRNA levels were determined as described with reference to FIG. 2. (A) IL-1β; (B) CCL2. (*p<0.05 by ANOVA, N=3).
as §2

CCL2 mRNA = assay: Thalamus mRNA levels by qPCR after contusion SCI; type: in vivo, mouse; settings: compared to vehicle-treated animals after contusion SCI; FIG. 3 (thalamus); N=3
Protocol: as §1, §3, §2

[2] = system: neurite outgrowth marker GAP-43; assay: Immunofluorescence staining of injured spinal cords; type: in vivo, mouse; settings: injured spinal cord transverse sections, SCI mice at 14-dpi, vs vehicle
Protocol: Immunofluorescence staining was performed on injured spinal cords of vehicle and boldine treated SCI mice at 14-dpi. 30-micron transverse sections were used to evaluate differences in the labeling of the neurite outgrowth marker GAP-43.

Ccl3 = assay: Chemokine gene expression in spinal cord tissue of SCI mice; type: in vivo, mouse; settings: C57B6 SCI animals at 14-dpi, vs vehicle; N=3, ANOVA p=0.085
Protocol: (§4) Additional studies were performed using tissues harvested from the mice for which behavioral testing data showing effects of boldine on Basso Mouse Scale and ladder rung walk test were collected. RNA-seq analysis was performed on spinal cord segments from SCI mice at 14-dpi treated with boldine or vehicle starting at 4-dpi (N=3 for each). Differentially expressed genes (DEGs) were clustered by their gene ontology (GO) and enrichment of GO terms was tested using a Fisher's exact test (GeneSCF v1.1-p2). Enriched DEGs were involved in pathways related to neutrophil activation and aggregation, inflammatory responses and astrocyte development.
(§5) Genes from a list of the top DEGs from the RNA-seq analysis were considered and tested for differences in gene expression of pro-inflammatory chemokines Ccl2 and Ccl3 between vehicle and boldine treated spinal cord tissues from C57B6 SCI animals at 14-dpi. Laminectomy-only (Sham) animals as were used as controls.

Ccl2 = assay: as above; type: in vivo, mouse; settings: C57B6 SCI animals at 14-dpi, vs vehicle; N=3, ANOVA p=0.091
Protocol: as §4, §5

[3] = system: C57BL6 mice, moderate contusion spinal cord injury (SCI) at T9-T10; assay: Ladder rung walk test (LRWT) after moderate contusion SCI; type: in vivo, mouse; settings: oral, twice daily starting at 4-dpi; at 13-dpi; vehicle-treated SCI mice 83%; N=5
Protocol: (§6) FIGS. 1A-C show the effects of boldine on locomotor functional recovery of C57BL6 mice after moderate spinal cord injury (SCI) at the interspace between thoracic vertebrae T9 and T10.
(§7) Function was determined by behavioral testing using both the Basso Mouse Scale (BMS) score (FIG. 1A) and the ladder rung walk test (LRWT) (FIG. 1B). While sham mice had normal BMS scores a few days after laminectomy, the BMS scores for contusion-SCI mice were much lower. […] (N=5; ANOVA *p<0.05 and **p<0.005 respectively).

[4] = system: C57BL6 mice, moderate contusion spinal cord injury (SCI) at T9-T10; assay: Basso Mouse Scale (BMS) open-field locomotor function after moderate contusion SCI; type: in vivo; settings: oral, twice daily starting at 4-dpi; at 13 dpi; vs vehicle-treated SCI mice; N=5
Protocol: as §6, §7

Compound: COc1cc2c(cc1O)CC1c3c(cc(O)c(OC)c3-2)CCN1C (racemic) [boldine]
- SCI-induced increase of caspase-1 mRNA in the hippocampus (caspase-1 mRNA): appeared to be corrected
- reduction of mRNA levels of CCL2 [1]: 38%
- reduction of mRNA levels of IL-10 (IL-1β mRNA; compared to vehicle-treated animals after contusion SCI, FIG. 3 (thalamus), N=3): 65.5%
- SCI-induced elevation of IL-1B mRNA levels in the thalamus (IL-1β mRNA; contusion SCI mice, qPCR, N=3 (FIG. 3 legend)): normalizes
- reduction of mRNA levels of CCL2 (CCL2 mRNA): 47.2%
- GAP43 immunofluorescence [2]: dramatically increased
- Ccl3 gene expression in spinal cord tissue (Ccl3): apparent decrease which did not reach our threshold for significance
- Ccl2 gene expression in spinal cord tissue (Ccl2): apparent decrease which did not reach our threshold for significance
- LRWT incorrect steps [3]: 13%
- BMS scores [4]: significantly increased
